Measured values: ChEMBL document CHEMBL3991601, “The target landscape of clinical kinase drugs” (Science, 2017)
Activity calls are given as the source filed them.

Assays:
[1] = target: Membrane-associated progesterone receptor component 1 (Homo sapiens, UniProt O00264)
[2] = target: Serine/threonine-protein kinase B-raf (Homo sapiens, UniProt P15056)
[3] = target: T1, Glycogen phosphorylase, liver form (Homo sapiens, UniProt P06737); assay type: subcellular, K-562, COLO 205, SK-N-BE(2) and MV-4-11, Cell lysate; settings: read-out: Kd apparent
T1 sequence (P06737 whole entry): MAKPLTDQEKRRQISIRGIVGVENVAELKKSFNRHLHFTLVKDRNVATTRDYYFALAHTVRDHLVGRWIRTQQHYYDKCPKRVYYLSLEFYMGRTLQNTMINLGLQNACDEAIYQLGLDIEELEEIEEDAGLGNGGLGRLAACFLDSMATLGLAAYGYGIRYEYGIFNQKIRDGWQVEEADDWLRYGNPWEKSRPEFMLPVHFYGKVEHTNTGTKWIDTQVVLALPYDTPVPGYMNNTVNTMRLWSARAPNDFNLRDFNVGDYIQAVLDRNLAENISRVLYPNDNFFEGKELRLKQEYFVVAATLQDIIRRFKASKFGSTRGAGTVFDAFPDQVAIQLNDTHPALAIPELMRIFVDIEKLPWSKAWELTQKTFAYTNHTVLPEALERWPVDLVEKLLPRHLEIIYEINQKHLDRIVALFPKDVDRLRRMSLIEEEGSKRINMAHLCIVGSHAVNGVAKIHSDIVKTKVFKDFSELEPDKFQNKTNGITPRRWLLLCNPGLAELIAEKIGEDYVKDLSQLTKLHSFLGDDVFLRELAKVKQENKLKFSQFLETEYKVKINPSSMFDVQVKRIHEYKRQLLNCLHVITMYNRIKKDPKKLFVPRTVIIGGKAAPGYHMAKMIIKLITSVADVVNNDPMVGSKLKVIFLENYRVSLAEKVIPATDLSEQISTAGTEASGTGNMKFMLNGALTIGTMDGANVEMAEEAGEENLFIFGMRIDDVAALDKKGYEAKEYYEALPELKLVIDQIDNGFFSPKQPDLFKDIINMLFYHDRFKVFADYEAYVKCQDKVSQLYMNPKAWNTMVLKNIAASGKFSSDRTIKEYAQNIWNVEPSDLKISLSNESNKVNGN

[4] = target: T2, RNA cytidine acetyltransferase (Homo sapiens, UniProt Q9H0A0)
T2 sequence (Q9H0A0 whole entry): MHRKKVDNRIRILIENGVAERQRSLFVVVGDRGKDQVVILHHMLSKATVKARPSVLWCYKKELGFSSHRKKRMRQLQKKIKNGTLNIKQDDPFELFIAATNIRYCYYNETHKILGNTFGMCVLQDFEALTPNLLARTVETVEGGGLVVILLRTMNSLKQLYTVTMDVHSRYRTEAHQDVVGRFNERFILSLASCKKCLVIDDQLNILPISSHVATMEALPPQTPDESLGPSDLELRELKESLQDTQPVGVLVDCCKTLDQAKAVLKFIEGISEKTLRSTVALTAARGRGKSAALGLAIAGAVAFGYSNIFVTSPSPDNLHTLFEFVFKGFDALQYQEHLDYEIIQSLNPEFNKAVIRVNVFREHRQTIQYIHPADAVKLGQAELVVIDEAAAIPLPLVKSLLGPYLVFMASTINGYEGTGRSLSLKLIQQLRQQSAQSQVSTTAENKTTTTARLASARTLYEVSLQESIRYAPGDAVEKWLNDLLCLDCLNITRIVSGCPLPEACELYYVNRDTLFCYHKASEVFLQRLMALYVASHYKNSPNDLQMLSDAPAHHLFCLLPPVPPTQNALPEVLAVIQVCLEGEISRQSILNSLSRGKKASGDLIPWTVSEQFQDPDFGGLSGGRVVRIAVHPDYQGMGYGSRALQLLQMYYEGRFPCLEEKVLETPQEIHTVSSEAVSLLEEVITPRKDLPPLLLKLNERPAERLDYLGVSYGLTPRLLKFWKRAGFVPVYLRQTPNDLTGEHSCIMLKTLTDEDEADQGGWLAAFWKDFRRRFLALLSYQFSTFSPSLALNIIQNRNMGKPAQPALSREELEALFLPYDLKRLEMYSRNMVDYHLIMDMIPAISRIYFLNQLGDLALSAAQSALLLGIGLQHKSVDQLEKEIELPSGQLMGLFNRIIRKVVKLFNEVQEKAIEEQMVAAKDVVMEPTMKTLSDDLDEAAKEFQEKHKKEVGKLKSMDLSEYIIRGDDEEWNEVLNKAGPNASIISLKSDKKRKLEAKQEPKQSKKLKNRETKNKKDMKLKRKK

[5] = target: T3, STE20-related kinase adapter protein alpha (Homo sapiens, UniProt Q7RTN6)
T3 sequence (Q7RTN6 whole entry): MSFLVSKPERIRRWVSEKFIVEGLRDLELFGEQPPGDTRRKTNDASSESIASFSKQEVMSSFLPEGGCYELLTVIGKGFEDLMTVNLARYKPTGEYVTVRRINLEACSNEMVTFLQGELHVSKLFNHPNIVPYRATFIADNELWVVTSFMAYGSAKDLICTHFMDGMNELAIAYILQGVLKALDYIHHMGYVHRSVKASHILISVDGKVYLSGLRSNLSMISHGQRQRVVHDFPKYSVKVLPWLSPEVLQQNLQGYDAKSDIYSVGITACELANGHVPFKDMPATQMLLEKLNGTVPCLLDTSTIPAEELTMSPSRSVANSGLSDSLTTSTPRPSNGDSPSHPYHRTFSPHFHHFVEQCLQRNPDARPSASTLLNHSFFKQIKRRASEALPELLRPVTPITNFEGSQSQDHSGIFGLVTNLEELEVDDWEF

[6] = target: Obg-like ATPase 1 (Homo sapiens, UniProt Q9NTK5)
Sequence of Obg-like ATPase 1 (Q9NTK5 whole entry, looked up): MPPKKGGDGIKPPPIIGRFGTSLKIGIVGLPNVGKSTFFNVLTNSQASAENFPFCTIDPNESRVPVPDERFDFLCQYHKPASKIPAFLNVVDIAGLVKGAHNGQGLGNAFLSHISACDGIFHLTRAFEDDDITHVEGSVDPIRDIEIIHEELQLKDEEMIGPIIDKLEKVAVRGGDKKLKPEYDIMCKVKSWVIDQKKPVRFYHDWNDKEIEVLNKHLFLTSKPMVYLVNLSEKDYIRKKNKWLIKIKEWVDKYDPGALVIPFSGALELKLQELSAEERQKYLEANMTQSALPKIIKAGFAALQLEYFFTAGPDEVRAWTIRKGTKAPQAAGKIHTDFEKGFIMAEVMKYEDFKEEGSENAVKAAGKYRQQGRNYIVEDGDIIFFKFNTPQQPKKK

[7] = target: Protein kinase C theta type (Homo sapiens, UniProt Q04759)
Sequence of Protein kinase C theta type (Q04759 whole entry): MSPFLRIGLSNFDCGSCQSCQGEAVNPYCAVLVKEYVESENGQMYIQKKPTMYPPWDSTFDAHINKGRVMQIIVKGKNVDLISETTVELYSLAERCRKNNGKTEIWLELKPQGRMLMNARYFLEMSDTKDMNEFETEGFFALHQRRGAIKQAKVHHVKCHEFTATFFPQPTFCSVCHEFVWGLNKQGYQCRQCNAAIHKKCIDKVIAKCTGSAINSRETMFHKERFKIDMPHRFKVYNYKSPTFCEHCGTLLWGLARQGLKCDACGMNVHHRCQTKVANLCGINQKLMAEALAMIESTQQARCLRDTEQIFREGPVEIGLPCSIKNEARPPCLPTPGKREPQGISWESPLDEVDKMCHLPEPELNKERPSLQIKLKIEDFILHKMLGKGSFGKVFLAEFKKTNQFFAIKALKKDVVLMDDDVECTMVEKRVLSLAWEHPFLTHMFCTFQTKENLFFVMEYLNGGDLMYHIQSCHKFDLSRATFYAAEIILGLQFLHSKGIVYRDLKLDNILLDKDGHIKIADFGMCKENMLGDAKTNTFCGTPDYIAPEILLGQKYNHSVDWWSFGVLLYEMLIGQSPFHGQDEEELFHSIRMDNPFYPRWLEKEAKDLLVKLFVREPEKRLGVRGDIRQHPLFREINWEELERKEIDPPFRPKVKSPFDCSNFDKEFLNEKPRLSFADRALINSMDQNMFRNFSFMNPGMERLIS
Also: in the data inactive means no Kd found up to 30 µM.

Sequence of Membrane-associated progesterone receptor component 1 (O00264 whole entry): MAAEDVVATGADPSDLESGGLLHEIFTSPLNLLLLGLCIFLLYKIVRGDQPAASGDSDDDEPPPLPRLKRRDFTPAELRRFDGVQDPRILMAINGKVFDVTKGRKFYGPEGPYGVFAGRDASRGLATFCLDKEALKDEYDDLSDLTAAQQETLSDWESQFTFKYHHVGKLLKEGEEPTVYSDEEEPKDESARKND
Sequence of Serine/threonine-protein kinase B-raf (P15056 whole entry): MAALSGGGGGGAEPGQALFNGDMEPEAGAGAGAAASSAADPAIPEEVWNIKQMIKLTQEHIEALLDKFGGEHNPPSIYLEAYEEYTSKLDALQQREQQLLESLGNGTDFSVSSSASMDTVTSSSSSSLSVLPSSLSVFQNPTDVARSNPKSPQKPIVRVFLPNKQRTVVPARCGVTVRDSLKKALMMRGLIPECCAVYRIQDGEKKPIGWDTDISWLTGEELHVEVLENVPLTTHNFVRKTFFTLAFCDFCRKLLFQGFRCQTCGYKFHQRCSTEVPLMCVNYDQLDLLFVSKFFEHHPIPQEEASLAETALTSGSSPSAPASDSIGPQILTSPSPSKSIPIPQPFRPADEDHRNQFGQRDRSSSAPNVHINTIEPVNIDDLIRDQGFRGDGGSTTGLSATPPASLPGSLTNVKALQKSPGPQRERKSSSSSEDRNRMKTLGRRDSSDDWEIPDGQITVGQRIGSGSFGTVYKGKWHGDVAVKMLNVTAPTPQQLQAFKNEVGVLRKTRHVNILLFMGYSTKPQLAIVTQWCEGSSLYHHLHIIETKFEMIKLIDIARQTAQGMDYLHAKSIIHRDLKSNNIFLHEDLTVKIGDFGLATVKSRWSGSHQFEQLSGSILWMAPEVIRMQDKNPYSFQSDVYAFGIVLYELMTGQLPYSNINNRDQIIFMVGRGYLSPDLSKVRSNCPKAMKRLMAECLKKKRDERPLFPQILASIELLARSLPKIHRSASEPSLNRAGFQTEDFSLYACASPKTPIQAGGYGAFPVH

Structure (SMILES)	Kd [1]	Kd [2]	Kd [3]	Kd [4]	Kd [5]	Kd [6]	Kd [7]
C[C@@H](Oc1cc(C(=O)Nc2ccc(C(=O)N3CCN(C)CC3)cc2)nnc1N)c1c(Cl)ccc(F)c1Cl	> 30 µM (inactive)	> 30 µM (inactive)	> 30 µM (inactive)	> 30 µM (inactive)	> 30 µM (inactive)		
C[C@H]1CNCCCN1S(=O)(=O)c1cccc2cncc(F)c12	> 30 µM (inactive)	> 30 µM (inactive)	> 30 µM (inactive)	> 30 µM (inactive)			
CC(=O)c1cnc2ccc(-c3cc(Cl)c(O)c(Cl)c3)nc2c1N[C@H]1CC[C@H](CN(C)C)CC1			> 30 µM (inactive)	> 30 µM (inactive)	> 30 µM (inactive)	> 30 µM (inactive)	
COCc1c(-c2ccc(NC(=O)Nc3cc(C(F)(F)F)ccc3F)c(F)c2)c2c(N)ncnn2c1CN1CCOCC1	> 30 µM (inactive)		> 30 µM (inactive)	> 30 µM (inactive)	> 30 µM (inactive)	> 30 µM (inactive)	
CNC(=O)c1ccccc1Sc1ccc2c(/C=C/c3ccccn3)n[nH]c2c1 [AXITINIB]			> 30 µM (inactive)	> 30 µM (inactive)	> 30 µM (inactive)	> 30 µM (inactive)	
Cc1cc(Nc2ncc(Cl)c(Nc3ccccc3S(=O)(=O)C(C)C)n2)c(OC(C)C)cc1C1CCNCC1 [CERITINIB]		> 30 µM (inactive)	> 30 µM (inactive)	> 30 µM (inactive)	> 30 µM (inactive)		> 30 µM (inactive)
COCC(=O)NC/C=C/c1ccc2ncnc(Nc3ccc(Oc4ccc(C)nc4)c(C)c3)c2c1 [CP-724714]	> 30 µM (inactive)		> 30 µM (inactive)	> 30 µM (inactive)	> 30 µM (inactive)	> 30 µM (inactive)	> 30 µM (inactive)
CC(C)(C)c1nc(-c2cccc(NS(=O)(=O)c3c(F)cccc3F)c2F)c(-c2ccnc(N)n2)s1 [DABRAFENIB]	> 30 µM (inactive)		> 30 µM (inactive)	> 30 µM (inactive)	> 30 µM (inactive)	> 30 µM (inactive)	
Cn1cc(C2=C(c3cn(C4CCN(Cc5ccccn5)CC4)c4ccccc34)C(=O)NC2=O)c2ccccc21 [ENZASTAURIN]			> 30 µM (inactive)	> 30 µM (inactive)	> 30 µM (inactive)		
CNC(=O)c1cccc2cc(Oc3ccnc4cc(OCC5(N)CC5)c(OC)cc34)ccc12 [LUCITANIB]	> 30 µM (inactive)		> 30 µM (inactive)	> 30 µM (inactive)	> 30 µM (inactive)	> 30 µM (inactive)	> 30 µM (inactive)
COc1ncc(-c2ccc3nccc(-c4ccnnc4)c3c2)cc1NS(=O)(=O)c1ccc(F)cc1F [OMIPALISIB]	> 30 µM (inactive)		> 30 µM (inactive)	> 30 µM (inactive)	> 30 µM (inactive)	> 30 µM (inactive)	> 30 µM (inactive)
Cc1[nH]c(/C=C2\C(=O)Nc3ccccc32)c(C)c1CCC(=O)O [ORANTINIB]	> 30 µM (inactive)	> 30 µM (inactive)	> 30 µM (inactive)	1.24 µM	> 30 µM (inactive)		
Cc1cnc(NC(=O)Nc2cc(Br)c(C)cc2OC[C@@H]2CNCCO2)cn1 [RABUSERTIB]	> 30 µM (inactive)		> 30 µM (inactive)	> 30 µM (inactive)	> 30 µM (inactive)	> 30 µM (inactive)	> 30 µM (inactive)
CNC(=O)c1cc(Oc2ccc(NC(=O)Nc3cc(C(C)(C)C)nn3-c3ccc4ncccc4c3)c(F)c2)ccn1 [REBASTINIB]			> 30 µM (inactive)	> 30 µM (inactive)	> 30 µM (inactive)	> 30 µM (inactive)	> 30 µM (inactive)
N#CC[C@H](C1CCCC1)n1cc(-c2ncnc3[nH]ccc23)cn1 [RUXOLITINIB]			> 30 µM (inactive)	> 30 µM (inactive)	3.67 µM		
COc1cc2c(Nc3ccc(Cl)c(Cl)c3F)ncnc2cc1OC[C@@H]1C[C@@H]2CN(C)C[C@@H]2C1 [TESEVATINIB]	> 30 µM (inactive)		> 30 µM (inactive)	> 30 µM (inactive)	> 30 µM (inactive)	> 30 µM (inactive)	> 30 µM (inactive)
C[C@@H](NC(=O)c1ncnc(N)c1Cl)c1ncc(C(=O)Nc2cc(C(F)(F)F)c(Cl)cn2)s1 [TOVORAFENIB]	> 30 µM (inactive)		> 30 µM (inactive)	> 30 µM (inactive)	> 30 µM (inactive)	> 30 µM (inactive)	> 30 µM (inactive)
Cc1cc(Nc2ncnc3ccc(NC4=NC(C)(C)CO4)cc23)ccc1Oc1ccn2ncnc2c1 [TUCATINIB]	> 30 µM (inactive)		> 30 µM (inactive)	> 30 µM (inactive)	> 30 µM (inactive)	> 30 µM (inactive)	> 30 µM (inactive)

Other lines, results leading:

Kd [1]	Kd [2]	Kd [3]	Kd [4]	Kd [5]	Kd [6]	Kd [7]	Structure (SMILES)
> 30 µM (inactive)		> 30 µM (inactive)	> 30 µM (inactive)	> 30 µM (inactive)	> 30 µM (inactive)		C[C@@H](Oc1cc(-n2cnc3ccc(CN4CCN(C)CC4)cc32)sc1C(N)=O)c1ccccc1C(F)(F)F [GSK-461364]
	> 30 µM (inactive)	> 30 µM (inactive)	> 30 µM (inactive)	> 30 µM (inactive)		> 30 µM (inactive)	CCn1cc(-c2ccnc3[nH]c(-c4cccc(CN(C)C)c4)cc23)c(-c2ccc(NC(=O)N(C)C)cc2)n1 [GSK-1070916]
> 30 µM (inactive)		> 30 µM (inactive)	> 30 µM (inactive)	> 30 µM (inactive)	> 30 µM (inactive)	> 30 µM (inactive)	NC1(c2ccc(-c3nc4ccn5c(=O)[nH]nc5c4cc3-c3ccccc3)cc2)CCC1 [MK-2206]
> 30 µM (inactive)		> 30 µM (inactive)	> 30 µM (inactive)	> 30 µM (inactive)			NC(=O)c1c(OCc2c(F)cc(Br)cc2F)nsc1NC(=O)NCCCCN1CCCC1 [OSI-632]
> 30 µM (inactive)		> 30 µM (inactive)	> 30 µM (inactive)	> 30 µM (inactive)	> 30 µM (inactive)		O=C(NOCCO)c1cc(CN2OCCCC2=O)c(F)c(F)c1Nc1ccc(I)cc1F [RO-4987655]
> 30 µM (inactive)		> 30 µM (inactive)	> 30 µM (inactive)	> 30 µM (inactive)	> 30 µM (inactive)	> 30 µM (inactive)	CCS(=O)(=O)c1cccc(-c2cc(C(=O)NC3CCN(C)CC3)c(C)c3[nH]c4ncc(C)cc4c23)c1 [TAK-901]
